In the supplement of paper PMC8617591:

How the values were obtained:
[1] = tested on: Mycobacterium tuberculosis Erdman (autoluminescent); assay: FIC90 (Loewe) at 90% inhibition (log2); higher = more antagonistic
Description: (§1)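 DiaMOND equipotent two-drug combination dose responses against autoluminescent M. tuberculosis Erdman in 8 in vitro models. Read-out is OD600, or luminescence for the intracellular and dormancy models, normalised to untreated wells. Hill-fit Einf, AUC25 and GRinf are potency metrics; FIC50 and FIC90 are Loewe-additivity fractional inhibitory concentrations, given as log2 (negative = synergy). Replicates are averaged.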

[2] = tested on: Mycobacterium tuberculosis Erdman (autoluminescent); assay: FIC50 (Loewe) at 50% inhibition (log2); higher = more antagonistic
Description: as §1

[3] = tested on: Mycobacterium tuberculosis Erdman (autoluminescent); assay: Einf, fitted maximum growth inhibition of combination (fraction); higher = stronger maximal inhibition
Description: as §1

[4] = tested on: Mycobacterium tuberculosis Erdman (autoluminescent); assay: AUC25, normalised area under dose response up to IC25 (fraction (0-1)); higher = more potent at low dose
Description: as §1

[5] = tested on: Mycobacterium tuberculosis Erdman (autoluminescent); assay: GRinf, maximum normalised growth rate inhibition (unitless (-1 to 1)); higher = less effect (negative = killing)
Description: as §1

CO[C@H]1/C=C/O[C@@]2(C)Oc3c(C)c(O)c4c(O)c(c(/C=N/N5CCN(C6CCCC6)CC5)c(O)c4c3C2=O)NC(=O)/C(C)=C\C=C\[C@H](C)[C@H](O)[C@@H](C)[C@@H](O)[C@@H](C)[C@H](OC(C)=O)[C@@H]1C [rifapentine] + CO[C@H]1/C=C/O[C@@]2(C)Oc3c(C)c(O)c4c(O)c(c(/C=N/N5CCN(C)CC5)c(O)c4c3C2=O)NC(=O)/C(C)=C\C=C\[C@H](C)[C@H](O)[C@@H](C)[C@@H](O)[C@@H](C)[C@H](OC(C)=O)[C@@H]1C [rifampicin]
Details	AUC25, [4]	Einf, [3]	FIC50, [2]	FIC90, [1]	GRinf, [5]
in vitro model: acidic pH 5.7, time point: constant (~7 days, model-specific)	0.0835	0.837	0.179	–	-0.028
in vitro model: acidic pH 5.7, time point: terminal (~4-5 doublings, model-specific)	0.0696	0.967	0.0519	-0.186	-0.182
in vitro model: intracellular J774, time point: constant = terminal	–	0.934	–	-0.3	-0.195

Details	AUC25, [4]	Einf, [3]	FIC50, [2]	FIC90, [1]	GRinf, [5]
in vitro model: butyrate, time point: constant (~7 days, model-specific)	0.101	0.887	0.0385	–	0.0983
in vitro model: butyrate, time point: terminal (~4-5 doublings, model-specific)	0.0929	0.958	-0.077	0.00202	0.0599
in vitro model: cholesterol 0.05 mM, time point: constant (~7 days, model-specific)	0.125	0.57	-0.0632	–	0.181
in vitro model: cholesterol 0.05 mM, time point: terminal (~4-5 doublings, model-specific)	0.085	0.883	-0.246	0.16	-0.0494
in vitro model: cholesterol-high 0.2 mM, time point: constant (~7 days, model-specific)	0.0915	0.921	-0.073	0.413	-0.231
in vitro model: cholesterol-high 0.2 mM, time point: terminal (~4-5 doublings, model-specific)	0.0669	0.999	0.0935	-0.0799	-0.64
in vitro model: dormancy (butyrate + nitrate, low O2), time point: constant (~7 days, model-specific)	0.062	0.902	0.0837	-0.356	0.162
in vitro model: dormancy (butyrate + nitrate, low O2), time point: terminal (~4-5 doublings, model-specific)	0.0354	0.979	0.0345	-0.0772	-0.0822
in vitro model: standard 7H9 glycerol, time point: constant = terminal	0.0721	0.907	0.198	0.54	0.101
in vitro model: valerate, time point: constant (~7 days, model-specific)	0.0488	0.815	0.231	–	0.136
in vitro model: valerate, time point: terminal (~4-5 doublings, model-specific)	0.0288	0.921	-0.0221	-0.019	0.0885

CC[C@@H](CO)NCCN[C@@H](CC)CO [ethambutol] + NC(=O)c1cnccn1 [pyrazinamide]
Details	AUC25, [4]	Einf, [3]	FIC50, [2]	FIC90, [1]	GRinf, [5]
in vitro model: acidic pH 5.7, time point: constant (~7 days, model-specific)	0.0998	0.866	-0.632	–	-0.453
in vitro model: acidic pH 5.7, time point: terminal (~4-5 doublings, model-specific)	0.0625	0.968	0.212	-0.791	-0.281
in vitro model: intracellular J774, time point: constant = terminal	–	0.994	–	-0.166	-0.569

Details	AUC25, [4]	Einf, [3]	FIC50, [2]	FIC90, [1]	GRinf, [5]
in vitro model: butyrate, time point: constant (~7 days, model-specific)	0.0986	0.866	0.466	–	0.133
in vitro model: butyrate, time point: terminal (~4-5 doublings, model-specific)	0.0883	0.817	0.636	–	-0.101
in vitro model: cholesterol 0.05 mM, time point: constant (~7 days, model-specific)	0.129	0.722	–	–	-0.326
in vitro model: cholesterol 0.05 mM, time point: terminal (~4-5 doublings, model-specific)	0.14	0.901	-0.0968	–	-0.224
in vitro model: cholesterol-high 0.2 mM, time point: constant (~7 days, model-specific)	0.0356	0.843	0.961	–	-0.204
in vitro model: cholesterol-high 0.2 mM, time point: terminal (~4-5 doublings, model-specific)	0.0539	0.999	0.865	0.821	-0.777
in vitro model: dormancy (butyrate + nitrate, low O2), time point: constant (~7 days, model-specific)	0.0925	0.813	-0.134	–	0.463
in vitro model: dormancy (butyrate + nitrate, low O2), time point: terminal (~4-5 doublings, model-specific)	0.085	0.945	0.32	-0.408	0.154
in vitro model: standard 7H9 glycerol, time point: constant = terminal	0.0625	0.873	0.18	–	0.0807
in vitro model: valerate, time point: constant (~7 days, model-specific)	0.0825	0.705	-0.152	–	0.281
in vitro model: valerate, time point: terminal (~4-5 doublings, model-specific)	0.0643	0.862	0.447	–	0.248

CC[C@@H](CO)NCCN[C@@H](CC)CO [ethambutol] + COc1c(N2C[C@@H]3CCCN[C@@H]3C2)c(F)cc2c(=O)c(C(=O)O)cn(C3CC3)c12 [moxifloxacin]
Details	AUC25, [4]	Einf, [3]	FIC50, [2]	FIC90, [1]	GRinf, [5]
in vitro model: acidic pH 5.7, time point: constant (~7 days, model-specific)	0.0862	0.734	-0.277	–	-0.475
in vitro model: acidic pH 5.7, time point: terminal (~4-5 doublings, model-specific)	0.0741	0.954	0.597	0.0622	-0.293
in vitro model: intracellular J774, time point: constant = terminal	–	0.983	–	-1.25	-0.327

Details	AUC25, [4]	Einf, [3]	FIC50, [2]	FIC90, [1]	GRinf, [5]
in vitro model: butyrate, time point: constant (~7 days, model-specific)	0.0864	0.923	0.483	–	-0.00896
in vitro model: butyrate, time point: terminal (~4-5 doublings, model-specific)	0.0649	0.968	0.451	0.0888	-0.0343
in vitro model: cholesterol 0.05 mM, time point: constant (~7 days, model-specific)	0.0757	0.731	0.0661	–	-0.25
in vitro model: cholesterol 0.05 mM, time point: terminal (~4-5 doublings, model-specific)	0.0944	0.944	0.765	0.527	-0.264
in vitro model: cholesterol-high 0.2 mM, time point: constant (~7 days, model-specific)	0.0274	0.942	0.681	–	-0.404
in vitro model: cholesterol-high 0.2 mM, time point: terminal (~4-5 doublings, model-specific)	0.0429	0.999	0.886	0.669	-0.639
in vitro model: dormancy (butyrate + nitrate, low O2), time point: constant (~7 days, model-specific)	0.105	0.833	0.352	–	0.45
in vitro model: dormancy (butyrate + nitrate, low O2), time point: terminal (~4-5 doublings, model-specific)	0.0964	0.967	-0.052	0.0461	-0.155
in vitro model: standard 7H9 glycerol, time point: constant = terminal	0.066	0.975	0.0276	-0.116	-0.21
in vitro model: valerate, time point: constant (~7 days, model-specific)	0.0569	0.878	0.703	–	-0.0437
in vitro model: valerate, time point: terminal (~4-5 doublings, model-specific)	0.0611	0.955	0.344	-0.489	-0.0314

CC(C)/N=c1\cc2n(-c3ccc(Cl)cc3)c3ccccc3nc-2cc1Nc1ccc(Cl)cc1 [clofazimine] + CO[C@H]1/C=C/O[C@@]2(C)Oc3c(C)c(O)c4c(O)c(c(/C=N/N5CCN(C6CCCC6)CC5)c(O)c4c3C2=O)NC(=O)/C(C)=C\C=C\[C@H](C)[C@H](O)[C@@H](C)[C@@H](O)[C@@H](C)[C@H](OC(C)=O)[C@@H]1C [rifapentine]
Details	AUC25, [4]	Einf, [3]	FIC50, [2]	FIC90, [1]	GRinf, [5]
in vitro model: acidic pH 5.7, time point: constant (~7 days, model-specific)	0.0913	0.879	0.0615	0.794	-0.198
in vitro model: acidic pH 5.7, time point: terminal (~4-5 doublings, model-specific)	0.0911	0.986	-0.0081	0.123	-0.304
in vitro model: intracellular J774, time point: constant = terminal	–	0.988	–	0.278	-0.308

Details	AUC25, [4]	Einf, [3]	FIC50, [2]	FIC90, [1]	GRinf, [5]
in vitro model: butyrate, time point: constant (~7 days, model-specific)	0.112	0.95	0.36	0.54	-0.0864
in vitro model: butyrate, time point: terminal (~4-5 doublings, model-specific)	0.0945	0.986	0.279	0.504	-0.0855
in vitro model: cholesterol 0.05 mM, time point: constant (~7 days, model-specific)	0.137	0.651	1.24	–	-0.17
in vitro model: cholesterol 0.05 mM, time point: terminal (~4-5 doublings, model-specific)	0.111	0.887	1.3	1.44	-0.127
in vitro model: cholesterol-high 0.2 mM, time point: constant (~7 days, model-specific)	0.102	0.924	0.657	1.06	-0.717
in vitro model: cholesterol-high 0.2 mM, time point: terminal (~4-5 doublings, model-specific)	0.0885	0.996	0.714	0.543	-0.813
in vitro model: dormancy (butyrate + nitrate, low O2), time point: constant (~7 days, model-specific)	0.0864	0.932	0.121	0.16	0.0493
in vitro model: dormancy (butyrate + nitrate, low O2), time point: terminal (~4-5 doublings, model-specific)	0.057	0.984	0.512	0.536	-0.373
in vitro model: standard 7H9 glycerol, time point: constant = terminal	0.1	0.967	0.18	0.35	-0.11
in vitro model: valerate, time point: constant (~7 days, model-specific)	0.136	0.885	0.297	–	-0.112
in vitro model: valerate, time point: terminal (~4-5 doublings, model-specific)	0.0746	0.918	0.0341	0.667	0.116
